Some test systems named below: T-47D breast; HS 578T breast; PC-3 prostate; MCF7 breast; HCT-116 colon; HOP-92 NSCLC; ACHN renal; MOLT-4 leukemia; COLO 205 colon; OVCAR-5 ovarian.
What all share (experiment): NCI anticancer screen, dose series, 48 h

Results on nine compounds are retold here after PubChem BioAssay (NCI).

Several values for one entry are separate records, joined by “and”; a condition that tells them apart may be missing. Equal values may be shown once.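 Method: 48-hour compound exposure of cells in 96-well plates, five concentrations, linear interpolation of endpoints. GI50: concentration for 50% inhibition of growth. At the TGI there is no net growth.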

`Clc1ccc(N2CCC(N3CCCC3)CC2)cc1-c1nc2ccccc2[nH]1`: the GI50 in the test on T-47D breast was 21.6 µM; in the test with HS 578T breast, 16.8 µM; in the test with PC-3 prostate, 30.9 µM; in the test with MCF7 breast, 15.8 µM; with HCT-116 colon it was 13.1 µM; in the test with HOP-92 NSCLC, 13.4 µM. In addition, the GI50 was 26.7 µM in the test on ACHN renal, 23.2 µM in the test on MOLT-4 leukemia, 16 µM in the test on COLO 205 colon and 26.5 µM in the test with OVCAR-5 ovarian. Besides, the TGI is 88.1 µM with T-47D breast; 51.7 µM in the test with HS 578T breast; greater than 100 µM with PC-3 prostate; 30.7 µM in the test with MCF7 breast; 27.5 µM in the test on HCT-116 colon; 42.8 µM in the test on HOP-92 NSCLC. Also, the TGI was 67.4 µM in the test with ACHN renal, 67.7 µM in the test with MOLT-4 leukemia, 30.8 µM with COLO 205 colon and greater than 69.4 µM with OVCAR-5 ovarian.

`O=c1cc(O)c2c(O)cc(O)cc2o1`: the TGI with T-47D breast, in the test on HS 578T breast, with PC-3 prostate, with MCF7 breast, in the test on HCT-116 colon and in the test on HOP-92 NSCLC was greater than 100 µM each time. Moreover, the TGI in the test with ACHN renal, in the test with MOLT-4 leukemia, in the test with COLO 205 colon and with OVCAR-5 ovarian was greater than 100 µM in each case.

In the case of `C[C@@](O)(/C=C/[C@H]1CC=CC(=O)O1)[C@@H](C[C@@H](O)\C=C/C=C\C=C\CO)OP(=O)(O)O`, the TGI in the test on T-47D breast was 161 µM; with HS 578T breast, 22.6 µM; in the test with PC-3 prostate, 12.4 µM; in the test on MCF7 breast, 13.9 µM and 50.4 µM; with HCT-116 colon it was 8.87 µM and 11 µM; with HOP-92 NSCLC, 10.6 µM. The TGI in the test on ACHN renal was 20.4 µM; with COLO 205 colon, 18.2 µM and 18.7 µM; with OVCAR-5 ovarian, 19.1 µM and 15 µM. Moreover, the GI50 in the test with MCF7 breast is 5.01 µM; in the test with HCT-116 colon, 4.1 µM; in the test on MOLT-4 leukemia, 13.4 µM and 3.71 µM; with OVCAR-5 ovarian, 11.5 µM.

As for `C#C/C=C/CC1OC(C(Br)CC)CC(Br)C2CC1O2` (stereo not drawn), the TGI is greater than 100 µM in the test on T-47D breast; greater than 100 µM with HS 578T breast; greater than 100 µM in the test with PC-3 prostate; greater than 100 µM with MCF7 breast; greater than 100 µM in the test on HCT-116 colon; 58.6 µM with HOP-92 NSCLC. The TGI in the test with ACHN renal, in the test with MOLT-4 leukemia, in the test on COLO 205 colon and with OVCAR-5 ovarian was greater than 100 µM in each case.

Consider `Cc1ncc(-c2ccnc(Nc3ccc(S(C)(=O)=O)cc3)n2)n1C(C)C`, for which the GI50 is 1.38 µM with T-47D breast; 0.977 µM in the test with HS 578T breast; 1.3 µM in the test on PC-3 prostate; 0.523 µM in the test on MCF7 breast; 0.275 µM in the test with HCT-116 colon; 0.926 µM in the test with HOP-92 NSCLC. The GI50 in the test with ACHN renal is 0.603 µM; in the test on MOLT-4 leukemia it was 1.03 µM; in the test on COLO 205 colon it was 0.532 µM; in the test with OVCAR-5 ovarian, 1.09 µM. For the same compound, the TGI in the test on T-47D breast is greater than 8.75 µM; with HS 578T breast, 5.33 µM; with PC-3 prostate, 7.2 µM; in the test with MCF7 breast, greater than 10 µM; in the test with HCT-116 colon it was greater than 10 µM; in the test on HOP-92 NSCLC it was 6.16 µM. The TGI in the test on ACHN renal was greater than 9.54 µM; in the test with MOLT-4 leukemia it was 4.99 µM; in the test with COLO 205 colon, 2.37 µM; in the test on OVCAR-5 ovarian, greater than 8.88 µM.

Regarding `Cn1c(C(C)(C)OC(=O)Oc2ccccc2)cnc1[N+](=O)[O-]`, the TGI in the test with T-47D breast, with HS 578T breast, in the test on PC-3 prostate, in the test with MCF7 breast, in the test on HCT-116 colon and in the test with HOP-92 NSCLC was greater than 100 µM each time. Further, the TGI was greater than 100 µM with ACHN renal, 45.8 µM in the test with MOLT-4 leukemia, greater than 100 µM with COLO 205 colon and greater than 100 µM with OVCAR-5 ovarian.

As for `C[n+]1c(/C=C/c2ccc(/C=N/NC(=O)c3ccc(C(=O)N/N=C/c4ccc(/C=C/c5cn6ccccc6[n+]5C)cc4)cc3)cc2)cn2ccccc21`, the TGI with T-47D breast, with HS 578T breast, in the test with PC-3 prostate, with MCF7 breast, in the test on HCT-116 colon and in the test on HOP-92 NSCLC was greater than 100 µM in each case. Further, the TGI in the test with ACHN renal was greater than 100 µM; with MOLT-4 leukemia, 92.4 µM; in the test on COLO 205 colon, greater than 100 µM; in the test with OVCAR-5 ovarian it was greater than 100 µM.

Turning to `CCN(Cc1cccc(F)c1F)c1ccc(CO)c(Cl)c1`, the GI50 was 0.07 µM in the test on T-47D breast; 17.9 µM with HS 578T breast; 15.4 µM in the test on PC-3 prostate; 0.157 µM with MCF7 breast; 0.067 µM in the test on HCT-116 colon; 0.19 µM with HOP-92 NSCLC. Further, the GI50 with ACHN renal was 17.8 µM; in the test on MOLT-4 leukemia, 19.8 µM; with COLO 205 colon, 2.47 µM; in the test with OVCAR-5 ovarian, 0.058 µM. For the same compound, the TGI came to 0.414 µM in the test with T-47D breast; 48.7 µM in the test with HS 578T breast; 37.2 µM in the test on PC-3 prostate; 12.6 µM with MCF7 breast; 11.2 µM in the test on HCT-116 colon; 8.23 µM in the test with HOP-92 NSCLC. In addition, the TGI is greater than 51.7 µM in the test on ACHN renal, 49.9 µM with MOLT-4 leukemia, 7.59 µM in the test with COLO 205 colon and 0.228 µM in the test with OVCAR-5 ovarian.

As to `O=C(c1ccccc1O)c1[nH]c(Cl)c(Cl)c1-n1c(C(=O)c2ccccc2O)cc(Cl)c1Cl`, the GI50 with T-47D breast is 0.36 µM and 0.46 µM; with HS 578T breast, 0.849 µM and 0.623 µM; with PC-3 prostate, 0.411 µM and 0.276 µM; in the test on MCF7 breast, 0.407 µM and 0.258 µM; in the test on HCT-116 colon, 0.336 µM and 0.344 µM; in the test with HOP-92 NSCLC, 0.224 µM and 0.155 µM. The GI50 is 1.54 µM and 0.591 µM with ACHN renal; 1.7 µM and 0.798 µM with MOLT-4 leukemia; 0.703 µM and 0.757 µM in the test on COLO 205 colon; 2.54 µM and 2.73 µM in the test on OVCAR-5 ovarian. Besides, the TGI is 3.34 µM and 11.2 µM with T-47D breast; 10.9 µM and 9.66 µM with HS 578T breast; 9.21 µM and 2.37 µM in the test on PC-3 prostate; 10.6 µM and 10.3 µM in the test on MCF7 breast; 4.76 µM and 10.4 µM with HCT-116 colon; 0.94 µM and 0.587 µM in the test on HOP-92 NSCLC. For the same compound, the TGI was 9.41 µM and 9.11 µM with ACHN renal; 14.4 µM and 5.74 µM with MOLT-4 leukemia; 2.47 µM and 3.17 µM with COLO 205 colon; 9.87 µM and 14.6 µM with OVCAR-5 ovarian.
